Results from patent US6326139A (priority 1997, dated 2001).

Key:
[1] = system: myasthenia gravis patients; conditions: in vivo; cited from earlier work
[2] = target: T1, Rec. BuChE D/D (normal) (Homo sapiens, UniProt P06276); assay: Inhibition by cocaine / α-solanine, recombinant D/D; format: biochemical
T1 construct: made in house; host or cells: Xenopus oocytes (microinjected in vitro transcribed mRNA)

[3] = target: T2, Rec. BuChE G/G ("atypical") (Homo sapiens, UniProt P06276, D98G); assay: Inhibition by cocaine / α-solanine, recombinant G/G; format: biochemical
T2 construct: made in house; host or cells: Xenopus oocytes (microinjected in vitro transcribed mRNA)
T2 sequence (P06276 29-602 D98G): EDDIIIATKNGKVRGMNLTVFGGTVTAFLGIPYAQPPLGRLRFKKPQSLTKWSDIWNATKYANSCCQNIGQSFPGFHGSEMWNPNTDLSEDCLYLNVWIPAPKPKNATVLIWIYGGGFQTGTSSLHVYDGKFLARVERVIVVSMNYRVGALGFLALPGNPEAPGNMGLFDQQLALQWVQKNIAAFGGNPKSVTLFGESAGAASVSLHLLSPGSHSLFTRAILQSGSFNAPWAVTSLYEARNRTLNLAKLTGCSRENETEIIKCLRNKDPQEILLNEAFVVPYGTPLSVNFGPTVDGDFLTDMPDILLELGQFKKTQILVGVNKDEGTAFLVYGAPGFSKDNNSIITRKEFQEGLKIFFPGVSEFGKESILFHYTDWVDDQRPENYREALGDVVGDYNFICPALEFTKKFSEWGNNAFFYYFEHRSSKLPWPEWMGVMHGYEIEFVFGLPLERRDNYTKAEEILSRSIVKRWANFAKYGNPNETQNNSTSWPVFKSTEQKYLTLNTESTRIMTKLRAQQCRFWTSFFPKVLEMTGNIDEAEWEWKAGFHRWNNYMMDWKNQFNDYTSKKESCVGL

[4] = target: T3, Serum BuChE D/D (normal) (Homo sapiens, UniProt P06276); assay: Inhibition by cocaine / α-solanine, serum D/D; format: biochemical
T3 construct: with enzyme from normal serum; from tissue; host or cells: human serum, normal homozygote
T3 sequence (P06276 29-602): as the sequence (P06276 29-602 D98G) above, with G70D counted along it

[5] = target: T4, Serum BuChE G/G ("atypical") (Homo sapiens, UniProt P06276, D98G); assay: Inhibition by cocaine / α-solanine, serum G/G; format: biochemical
T4 construct: applicants prepared serum from an individual who had experienced succinylcholine-induced apnea; from tissue; host or cells: human serum, homozygous carrier of the atypical allele
T4 sequence (P06276 29-602 D98G): as the sequence (P06276 29-602 D98G) above

[6] = target: T5, Rec. AChE (Homo sapiens, UniProt P22303); assay: Inhibition by cocaine, recombinant AChE; format: biochemical
T5 construct: made in house; host or cells: Xenopus oocytes (injected ACHE DNA, CMV promoter)
T5 sequence (P22303 32-614): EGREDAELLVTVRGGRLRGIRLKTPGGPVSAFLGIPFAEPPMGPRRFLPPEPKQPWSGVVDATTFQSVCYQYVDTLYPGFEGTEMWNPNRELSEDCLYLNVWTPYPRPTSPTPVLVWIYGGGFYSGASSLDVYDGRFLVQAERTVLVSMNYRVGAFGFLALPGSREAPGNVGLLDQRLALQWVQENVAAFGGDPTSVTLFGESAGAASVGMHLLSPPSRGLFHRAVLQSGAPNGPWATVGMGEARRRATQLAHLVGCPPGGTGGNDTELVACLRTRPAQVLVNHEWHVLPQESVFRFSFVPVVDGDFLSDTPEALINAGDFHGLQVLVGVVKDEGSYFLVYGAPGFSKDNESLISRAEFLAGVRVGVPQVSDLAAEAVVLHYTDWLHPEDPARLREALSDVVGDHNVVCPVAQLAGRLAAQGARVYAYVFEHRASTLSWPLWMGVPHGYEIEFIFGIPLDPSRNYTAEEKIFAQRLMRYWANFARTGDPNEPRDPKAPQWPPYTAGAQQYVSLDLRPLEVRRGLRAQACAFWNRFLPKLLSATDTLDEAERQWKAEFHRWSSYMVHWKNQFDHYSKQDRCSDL

[7] = target: T6, normal BuChE (serum and recombinant) (Homo sapiens, UniProt P06276); assay: Inhibition by cocaine / α-solanine, normal enzymes; format: biochemical
T6 construct: made in house; host or cells: Xenopus oocytes (recombinant) and normal human serum (native), reported together
T6 sequence (P06276 29-602): as the sequence (P06276 29-602 D98G) above, with G70D counted along it

[8] = target: BuChE L^286 K (Homo sapiens, UniProt P06276, L314K); assay: Reactivation by PAM of DFP-inhibited enzyme; format: biochemical
BuChE L^286 K, sequence (P06276 29-602 L314K limits assumed): as the sequence (P06276 29-602 D98G) above, with G70D, L286K counted along it
Description: (§1) and 1 μM DFP. The pseudo-first order rate constant for reactivation, […]

[9] = system: Chimera of human AChE and BuChE; assay: Reactivation by PAM of DFP-inhibited enzyme; format: biochemical
Description: as §1

[10] = target: T7, DIP-BuChE (Homo sapiens, UniProt P06276); assay: Reactivation by PAM of DFP-inhibited enzyme; format: biochemical
T7 construct: made in house; host or cells: Xenopus oocytes (microinjected in vitro transcribed mRNA)
T7 sequence (P06276 29-602): as the sequence (P06276 29-602 D98G) above, with G70D counted along it
Description: as §1

[11] = target: AChE (E5) (Homo sapiens, UniProt P22303)
AChE (E5), sequence (P22303-4 with tags, fused parts or gaps limits assumed): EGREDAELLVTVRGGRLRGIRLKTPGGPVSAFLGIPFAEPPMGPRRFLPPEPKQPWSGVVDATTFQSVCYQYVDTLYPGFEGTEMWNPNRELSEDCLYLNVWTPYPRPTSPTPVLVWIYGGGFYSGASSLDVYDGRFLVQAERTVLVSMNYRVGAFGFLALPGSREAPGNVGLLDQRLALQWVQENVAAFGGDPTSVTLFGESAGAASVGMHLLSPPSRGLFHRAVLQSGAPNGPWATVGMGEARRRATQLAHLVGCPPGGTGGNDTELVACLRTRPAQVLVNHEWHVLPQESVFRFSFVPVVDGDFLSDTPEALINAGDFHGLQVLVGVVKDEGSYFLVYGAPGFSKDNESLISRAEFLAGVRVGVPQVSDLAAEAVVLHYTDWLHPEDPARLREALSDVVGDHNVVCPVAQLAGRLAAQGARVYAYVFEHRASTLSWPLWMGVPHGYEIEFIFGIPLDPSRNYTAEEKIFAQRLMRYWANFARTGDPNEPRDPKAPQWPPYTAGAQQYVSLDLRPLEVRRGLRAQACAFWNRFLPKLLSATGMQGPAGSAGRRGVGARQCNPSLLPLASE
Description: (§2) Single-step enrichment for AChE or BuChE on immobilized antibody: Monoclonal mouse anti-human serum BuChE (53-4) or anti-human ACHE (101-1) antibodies (Liao et al., 1993), were adsorbed to microliter plates (Nunc, Roskilde, Denmark) at […] in 0.1 M carbonate buffer, pH 9.6, for at least four hours at room temperature. Plates were then washed three times in PBS-T buffer (144 mM NaCl, 20 mM Na phosphate, pH 7.4, 0.05% Tween-20). Free binding sites on the well surface of the microliter plate were blocked with PBS-T for one hour at 37° C. […] Microinjected oocyte homogenates containing the enzyme were then added at a dilution of 1:20 in PBS-T or at a concentration of 100 mIU/ml in PBS-T for at least 3 hours at room temperature with agitation. Plates were washed three times with PBS-T before use. Inactivation was performed at pH 7.4 in order to facilitate comparison with similar studies in the literature.
(§3) and 1 μM DFP. The pseudo-first order rate constant for reactivation,
(§4) ^a True first order rate constants for reactivation (kr) and […]

[12] = target: AChE (E6) (Homo sapiens, UniProt P22303)
AChE (E6), sequence (P22303 32-614): as the sequence (P22303 32-614) above
Description: as §2, §3, §4

[13] = system: BuChE D^70 G + S^425 P; assay: Reactivation by PAM of DFP-inhibited enzyme; format: biochemical, human; conditions: 1 mM PAM; pseudo-first order
Description: as §1

[14] = system: BuChE D^70 G + Y^114 H + S^425 P; assay: Reactivation by PAM of DFP-inhibited enzyme; format: biochemical, human
Description: as §1

[15] = system: BuChE D^70 G + Y^114 H; assay: Reactivation by PAM of DFP-inhibited enzyme; format: biochemical, human; conditions: 1 mM PAM; pseudo-first order
Description: as §1

[16] = system: BuChE D^70 G; assay: Reactivation by PAM of DFP-inhibited enzyme; format: biochemical, human
Description: as §1

[17] = system: BuChE F^329 C; assay: Reactivation by PAM of DFP-inhibited enzyme; format: biochemical, human; conditions: 1 mM PAM; pseudo-first order
Description: as §1

[18] = system: BuChE F^329 D; assay: Reactivation by PAM of DFP-inhibited enzyme; format: biochemical, human; conditions: 1 mM PAM; pseudo-first order
Description: as §1

[19] = system: BuChE F^329 Q; assay: Reactivation by PAM of DFP-inhibited enzyme; format: biochemical, human; conditions: 1 mM PAM; pseudo-first order
Description: as §1

[20] = system: BuChE F^329 R; assay: Reactivation by PAM of DFP-inhibited enzyme; format: biochemical, human; conditions: 1 mM PAM; pseudo-first order
Description: as §1

[21] = system: BuChE L^286 D; assay: Reactivation by PAM of DFP-inhibited enzyme; format: biochemical, human; conditions: 1 mM PAM; pseudo-first order
Description: as §1

[22] = system: BuChE L^286 Q; assay: Reactivation by PAM of DFP-inhibited enzyme; format: biochemical, human; conditions: 1 mM PAM; pseudo-first order
Description: as §1

[23] = system: BuChE L^286 R; assay: Reactivation by PAM of DFP-inhibited enzyme; format: biochemical, human; conditions: 1 mM PAM; pseudo-first order
Description: as §1

[24] = system: BuChE S^425 P; assay: Reactivation by PAM of DFP-inhibited enzyme; format: biochemical, human; conditions: 1 mM PAM; pseudo-first order
Description: as §1

[25] = system: D^70 G BuChE in tandem with one or two additional natural mutations; assay: Reactivation by 2-PAM of DFP-inactivated enzyme; format: biochemical, human
Description: Single-step enrichment for AChE or BuChE on immobilized antibody: Monoclonal mouse anti-human serum BuChE (53-4) or anti-human ACHE (101-1) antibodies (Liao et al., 1993), were adsorbed to microliter plates (Nunc, Roskilde, Denmark) at 0.5 pg/ml in 0.1 M carbonate buffer, pH 9.6, for at least four hours at room temperature. Plates were then washed three times in PBS-T buffer (144 mM NaCl, 20 mM Na phosphate, pH 7.4, 0.05% Tween-20). Free binding sites on the well surface of the microliter plate were blocked with PBS-T for one hour at 37° C. […] Microinjected oocyte homogenates containing the enzyme were then added at a dilution of 1:20 in PBS-T or at a concentration of 100 mIU/ml in PBS-T for at least 3 hours at room temperature with agitation. Plates were washed three times with PBS-T before use. Inactivation was performed at pH 7.4 in order to facilitate comparison with similar studies in the literature.

[26] = in vivo; cited from earlier work
[27] = true first order, 0.1 to 0.6 mM PAM

T1 sequence (P06276 29-602): as the sequence (P06276 29-602 D98G) above, with G70D counted along it

CC[N+](C)(C)c1cccc(O)c1 [edrophonium]
relief of symptoms [1]: immediate, but brief, relief of the characteristic symptoms

COC(=O)[C@H]1[C@@H](OC(=O)c2ccccc2)C[C@@H]2CC[C@H]1N2C [cocaine]
IC50 [2]: 280 ± 20 µM | IC50 [3]: 4050 ± 50 µM | IC50 [4]: 320 ± 80 µM | IC50 [5]: 5200 ± 300 µM | IC50 [6]: 3450 ± 2150 µM | IC50 [7]: 300 µM

C[n+]1ccccc1C=NO [PAM, Pyridine-2-aldoxime methiodide]
k'r × 10^3 ([8]; 1 mM PAM, pseudo-first order): 4 ± 1 min^-1 | reduction in the pseudo-first order rate constant for reactivation ([8]; L^286 K): 40 fold | kr × 10^3 [8, 27]: 35 ± 27 min^-1 | k'r × 10^3 ([9]; 1 mM PAM, pseudo-first order): 40 ± 18 min^-1 | reactivation rate constant lower than native BuChE ([9]; chimera): 5 fold | kr × 10^3 [9, 27]: 48 ± 20 min^-1 | k'r × 10^3 ([10]; 1 mM PAM, pseudo-first order): 150 ± 30 min^-1 | pseudo-first order reactivation rate constant higher than for either form of AChE ([10]; DFP-inhibited BuChE): 25 fold | kr × 10^3 [10, 27]: 220 ± 60 min^-1 | k'r × 10^3 ([11]; 1 mM PAM, pseudo-first order): 8 ± 3 min^-1 | kr × 10^3 [11, 27]: 10 ± 5 min^-1 | k'r × 10^3 ([12]; 1 mM PAM, pseudo-first order): 6 ± 2 min^-1 | kr × 10^3 [12, 27]: 7 ± 3 min^-1 | k'r × 10^3 [13]: 11 min^-1 | k'r × 10^3 ([14]; 1 mM PAM, pseudo-first order): 4 ± 1 min^-1 | decrease in the rate of reactivation ([14]; all three mutations): 40 fold | k'r × 10^3 [15]: 12 ± 5 min^-1 | k'r × 10^3 ([16]; 1 mM PAM, pseudo-first order): 32 ± 4 min^-1 | reactivation rate lower than wild-type ([16]; D^70 G, DFP-inactivated): 5 fold | k'r × 10^3 [17]: 14 ± 2 min^-1 | k'r × 10^3 [18]: 8 ± 1 min^-1 | k'r × 10^3 [19]: 44 ± 15 min^-1 | k'r × 10^3 [20]: 43 min^-1 | k'r × 10^3 [21]: 120 ± 30 min^-1 | k'r × 10^3 [22]: 120 ± 20 min^-1 | k'r × 10^3 [23]: 6 ± 3 min^-1 | k'r × 10^3 [24]: 134 ± 8 min^-1 | rate of reactivation lower than wild type [25]: ≤ 40 fold

CCN(CC)C(=O)c1cccc(C)c1 [DEET]
toxicity of anti-ChEs [26]: amplify the toxicity of anti-ChEs
